# Columns and labels:
# T98G [1] = experiment: Cytotoxicity activity against human T98G cells assessed as reduction in cell growth measured for 48 hrs by MTS reagent based assay; format: functional
# U-87 MG [2] = experiment: Growth inhibition of human U-87 MG cells measured after 72 hrs by MTT assay; format: functional, U-87MG ATCC
# [3] = Growth inhibition of human U373 MG cells measured after 72 hrs by MTT assay; format: functional, U-373MG ATCC
# Hs68 = experiment: Growth inhibition of human Hs68 cells measured after 72 hrs by MTT assay; format: functional
# T98G [4] = experiment: Growth inhibition of human T98G cells measured after 72 hrs by MTT assay; format: functional
# SF-268 [5] = experiment: Cytotoxicity against human SF-268 cells assessed as reduction in cell viability incubated for 72 hrs by MTT assay; format: functional, cell-based; details: SF-268, 72 h
# [6] = Cytotoxicity against rat ASK cells assessed as reduction in cell growth by SRB assay; format: functional; details: read-out: ED50 (the source's name)
# [7] = Cytotoxicity against human GSC-3 cells assessed as reduction in cell growth incubated for 72 hrs by MTS assay; format: functional, cell-based; details: GSC-3, 72 h
# [8] = Cytotoxicity against human GSC-18 cells assessed as reduction in cell growth incubated for 72 hrs by MTS assay; format: functional, cell-based; details: GSC18, 72 h
# U-87 MG [9] = experiment: Antiproliferative activity against human U-87 MG cells assessed as reduction in cell viability at 50 uM incubated for 48 hrs by CCK-8 assay relative to control; format: functional, U-87MG ATCC
# C6 [10] = experiment: Antiproliferative activity against rat C6 cells assessed as reduction in cell viability incubated foe 24 hrs by MTT assay; format: functional, cell-based; details: C6, 24 h
# U-87 MG [11] = experiment: Antiproliferative activity against human U-87 MG cells assessed as reduction in cell viability incubated foe 24 hrs by MTT assay; format: functional, cell-based, U-87MG ATCC
# U-87 MG [12] = experiment: Antiproliferative activity against human U-87 MG cells assessed as reduction in cell viability incubated for 48 hrs by CCK-8 assay; format: functional, cell-based, U-87MG ATCC
# LN-18 [13] = experiment: Antiproliferative activity against human LN-18 cells assessed as reduction in cell viability incubated for 48 hrs by CCK-8 assay; format: functional, cell-based; details: LN-18, 48 h
# U-251 [14] = experiment: Antiproliferative activity against human U-251MG cells assessed as reduction in cell viability at 50 uM incubated for 48 hrs by CCK-8 assay relative to control; format: functional
# U-118-MG [15] = experiment: Antiproliferative activity against human U-118-MG cells assessed as inhibition of cell proliferation incubated for 72 hrs by CCK8 assay; format: functional, cell-based
# U-87 MG [16] = experiment: Antiproliferative activity against human U-87 MG cells assessed as reduction in cell growth measured for 24 hrs by MTT assay; format: functional, cell-based, U-87MG ATCC
# C6 [17] = experiment: Cytotoxicity against rat C6 cells assessed as reduction in cell growth measured for 48 hrs by MTT assay; format: functional, cell-based; details: C6, 48 h
# U-251 [18] = experiment: Cytotoxicity against human U-251MG cells assessed as reduction in cell growth incubated for 24 hrs by MTT assay; format: functional, cell-based; details: U-251, 24 h
# CCF-STTG1 = experiment: Cytotoxicity against human CCF-STTG1 cells assessed as reduction in cell growth incubated for 24 hrs by MTT assay; format: functional, cell-based; details: CCF-STTG1, 24 h
# [19] = Cytotoxicity against human SHG-44 cells assessed as reduction in cell growth incubated for 24 hrs by MTT assay; format: functional, cell-based; details: SHG-44, 24 h
# [20] = Cytotoxicity against human CHG-5 cells assessed as reduction in cell growth incubated for 24 hrs by MTT assay; format: functional, cell-based; details: CHG-5, 24 h
# U-87 MG [21] = experiment: Cytotoxicity against human U-87 MG cells by resazurin dye based assay; format: functional, cell-based, U-87MG ATCC
# [22] = Cytotoxicity against human U87MG.deltaEGFR cells by resazurin dye based assay; format: functional, cell-based
# U-251 [23] = experiment: Cytotoxicity against human U-251MG cells assessed as reduction in cell growth; format: functional, cell-based
# H4 = experiment: Antiproliferative activity against human H4 cells assessed as reduction in cell viability incubated for 72 hrs by Presto-Blue cell viability assay; format: functional, cell-based; details: H4, 72 h
# U-87 MG [24] = experiment: Antitumor activity against human U-87 MG cells xenografted in mouse model assessed as reduction in tumor growth at 15 mg/kg, ip administered once daily for 5 days relative to control; format: functional, U-87MG ATCC; parameters: scale not given: the % may be the effect or the level left; details: time 5 day
# U-87 MG [25] = experiment: Antiproliferative activity against human U-87 MG cells assessed as reduction in cell viability incubated for 72 hrs by Presto-Blue cell viability assay; format: functional, cell-based, U-87MG ATCC
# U-251 [26] = experiment: Induction of apoptosis in human U-251MG cells assessed as increase in PARP cleavage at 12.5 to 100 uM incubated for 24 hrs by Western blot analysis; format: functional; details: dose 12.5-100 µM
# SF-268 [27] = experiment: Cytotoxicity against human SF-268 cells; format: functional; details: read-out: ED50 (the source's name)
# U-87 MG [28] = experiment: Cytotoxicity against human U-87 MG cells assessed as reduction in cell viability incubated for 72 hrs by neutral red uptake assay; format: functional, cell-based, U-87MG ATCC
# U-87 MG [29] = experiment: Cytotoxicity against human U-87 MG cells assessed as reduction in cell viability in presence of Jerantinine B incubated for 72 hrs by neutral red uptake assay; format: functional, cell-based, U-87MG ATCC
# U-118-MG [30] = experiment: Antiproliferative activity against human U-118-MG cells assessed as reduction in cell viability incubated for 72 hrs by MTT assay; format: functional, cell-based
# U-87 MG [31] = experiment: Antiproliferative activity against human U-87 MG cells assessed as reduction in cell viability incubated for 72 hrs by MTT assay; format: functional, cell-based, U-87MG ATCC
# C6 [32] = experiment: Antiproliferative activity against rat C6 cells assessed as reduction in cell viability by MTT assay; format: functional, cell-based
# [33] = Antiproliferative activity against human SHG-44 cells assessed as reduction in cell viability by MTT assay; format: functional, cell-based
# T98G [34] = experiment: Antiproliferative activity against human T98G cells assessed as reduction in cell viability measured for 24 hrs by MTT assay; format: functional, cell-based
# LN-18 [35] = experiment: Antiproliferative activity against human LN-18 cells assessed as inhibition of cell growth incubated for 72 hrs MTS assay; format: functional, cell-based; details: LN-18, 72 h
# C6 [36] = experiment: Antiproliferative activity against rat C6 cells assessed as reduction in cell growth at 10 uM incubated for 24 hrs by MTT assay relative to control; format: functional; parameters: scale not given: the % may be the effect or the level left
# U-251 [37] = experiment: Antiproliferative activity against human U-251MG cells assessed as reduction in cell viability incubated for 72 hrs by MTT assay; format: functional, cell-based; details: U-251, 72 h
# T98G [38] = experiment: Antiproliferative activity against human T98G cells assessed as reduction in cell viability by MTT assay; format: functional, cell-based
# LN-229 = experiment: Antiproliferative activity against human LN-229 cells assessed as reduction in cell viability by MTT assay; format: functional, cell-based
smiles,measurement,setting,value
C=CC(C)(C)n1cc(Cc2cn(C(C)(C)C=C)c3ccccc23)c2ccccc21,IC50,T98G [1],18 µg/mL
O[C@@H]1CN2Cc3cc4c(cc3C13C=C[C@H](O)C[C@@H]23)OCO4 (stereo partly specified),GI50,U-87 MG [2],9 µM
same,GI50,[3],38 µM
same,GI50,Hs68,11 µM
same,GI50,T98G [4],9 µM
CC[C@H](/C=C(C)/C=C/C(=O)c1c(O)c(-c2ccc(O)cc2)c[nH]c1=O)CO,IC50,SF-268 [5],31.1 µM
COc1cc2c(cc1Oc1c(C=O)ccc(OC)c1OC)C(=O)c1nccc3c(OC)c(OC)c(OC)c-2c13,EC50,[6],10.2 µg/mL
same,IC50,[7],2.36 µg/mL
same,IC50,[8],2.55 µg/mL
COc1cc2c(cc1Oc1c(C=O)ccc(OC)c1OC)cc1c3c(c(OC)c(OC)c(OC)c32)CCN1C,EC50,[6],2.11 µg/mL
same,IC50,[7],4.54 µg/mL
same,IC50,[8],5.37 µg/mL
COc1cc2c[n+](C)c3c4cc5c(cc4ccc3c2cc1OC)OCO5.[Cl-] [NITIDINE CHLORIDE],Activity,U-87 MG [9],~50%
same,IC50,C6 [10],8 µM
same,IC50,U-87 MG [11],10 µM
same,IC50,U-87 MG [12],5 µM
same,IC50,LN-18 [13],5 µM
same,Activity,U-251 [14],~50%
COc1ccc2cc1Oc1ccc(cc1)C[C@H]1c3cc(c(OC)cc3CCN1C)Oc1c(O)c(OC)cc3c1[C@H](C2)N(C)CC3 [FANGCHINOLINE],IC50,U-118-MG [15],44.2 µM
same,IC50,U-87 MG [16],39.3 µM
COc1ccc(C[C@@H]2c3cc(Oc4cc(C[C@@H]5c6cc(OC)c(OC)cc6CCN5C)ccc4O)c(OC)cc3CCN2C)cc1 [NEFERINE],IC50,C6 [17],12 µM
COC(=O)N1CCc2cc(O)c(OC)c3c2[C@@H]1Cc1ccc(OC)c(O)c1-3,IC50,U-251 [18],11.9 µM
same,IC50,CCF-STTG1,10.4 µM
same,IC50,[19],11.9 µM
same,IC50,[20],12.2 µM
COc1cccc2c1C(=O)c1c(O)c3c(c(O)c1C2=O)C[C@@](O)(C(=O)CO)C[C@@H]3O[C@H]1C[C@H](N)[C@H](O)[C@H](C)O1 [DOXORUBICIN],IC50,SF-268 [5],0.7 µM
same,IC50,U-87 MG [21],1.06 µM
same,IC50,[22],6.11 µM
same,IC50,U-251 [23],0.237 µM
COc1ccc2c(c1)[nH]c1c(C)nccc12 [HARMINE],IC50,H4,4.9 µM
same,Activity,U-87 MG [24],16.5%
same,IC50,U-87 MG [25],45.3 µM
same,Activity,U-251 [26],346%
O=C1N[C@H]2[C@H](O)[C@H](O)[C@@H](O)[C@H](O)[C@@H]2c2cc3c(c(O)c21)OCO3 [PANCRATISTATIN],EC50,SF-268 [27],0.017 µg/mL
CC(C)=CCC/C(C)=C/CC/C(C)=C/CC[C@]1(C)CCc2cc(O)cc(C)c2O1 [DELTA-TOCOTRIENOL],IC50,U-87 MG [28],3.12 µg/mL
same,IC50,U-87 MG [29],1.83 µg/mL
COc1ccc2cc3[n+](cc2c1OC)CCc1cc2c(cc1-3)OCO2 [BERBERINE],IC50,U-118-MG [30],35.5 µM
same,IC50,U-87 MG [31],21.8 µM
same,IC50,C6 [32],50.9 µM
same,IC50,[33],0.2748 µg/mL
same,IC50,T98G [34],134 µg/mL
same,IC50,LN-18 [35],89.7 µM
same,Activity,C6 [36],88%
same,IC50,U-251 [37],9.79 µM
same,IC50,T98G [38],120 µM
same,IC50,LN-229,0.0813 µg/mL
